{"source": "patent US20230296590A1", "about": "“Devices and Methods to Induce Adult type Maturation of Human Pluripotent Stem Cell Derived Cardiomyocytes” (priority 2022, published 2023)", "type_in_all_cases": "cell-based, human", "key": {"hiPSC-CMs [1]": {"system": "hiPSC-CMs", "test": "Optical recording of action potential with genetically encoded voltage indicators (Varnam, Arclight)", "details": "cells on CMM", "text": "Cyto-calcium, Action potential and redox handling. Cytoplasmic calcium and redox status of iPSC-CMs using spinning disk confocal microscope (Olympus/Andor Revolution XD) was monitored. 3rd gen. lentiviral probes using ViraPower™ Lentiviral mix was generated and transduced iPSC-CMs using MOI 5 (multiplicity of infection) that generated good signal to noise ratio. Cytoplasmic targeted roGFP-Grx1 probes(Gutscher et al., 2008), Calcium probe (genetically encoded Ca^2+ indicators (GECIs)-GCamP6f(Hubbi et al., 2013), Arclight(Jin et al., 2012) and Varnam(Kannan et al., 2018) were obtained from Addgene and transferred to pENTR™/SD/D-TOPO® vector using PCR. The vector was sequence verified and then transferred to pLEX_307 vector (Addgene plasmid #41392) that contains the EFlα promoter using the LR reaction. […] The virus was generated for each probe in HEK293-FT cells using an optimized mix of three packaging plasmids (pLP1, pLP2, and pLP/VSVG). The virus was concentrated using PEG-it™ Virus Precipitation Solution (SBI biosciences) that also removes HEK293-FT cell medium.\nTo monitor the florescence signal from cells transduced with probes, cells were plated at a density of 200,000 per cm^2 on cultured surfaces for at least 10-15 days prior to imaging, to achieve cell-cell coupling. […]\nFlorescence from cells (transduced with probes) was collected separately at a […] using an electron-multiplying charge-coupled device (EMCCD) camera using Andor Revolution X1 Spinning Disk confocal inverted microscope. […] ROS (roGFP2-Grx) probes were excited with 405 nm and 488 nm laser and emission was detected using bandpass filter of 500 nm-554 nm. […] Recovery of glutathione pool was monitored for 180-240 sec before the utilization of diamide (oxidized) and DTT (reduced) to obtain min and max signal. […] Cells transduced with cytoplasmic GCamp6f were excited at 488 nm and emission was detected using bandpass filter of 500 nm-554 nm. […] The data was analyzed using image J (NIH)."}, "hiPSC-CMs [2]": {"system": "hiPSC-CMs", "test": "Sarcoplasmic reticulum calcium content, caffeine-induced Ca2+ release, Fura2 imaging", "details": "10 mM", "description": "To investigate calcium content of the sarcoplasmic reticulum (SR), Fura2 (ThermoFisher 3 uM) loaded cells were perfused with caffeine. Cells were initially perfused with modified Tyrode solution at 37C (pH 7.4) containing (in mM) 130 NaCl, 5 KCl, 1 MgCl2, 1.2 CaCl2, 20 Na-HEPES, 10 glucose, 1 pyruvate, 0.1% fatty acid free-BSA. After pacing the cells at 0.5 Hz for 30-40 sec, cells were perfused with the modified Tyrode buffer containing caffeine (10 mM). Images were analyzed using image J (NIH). Line plots (trace plots) were generated for both action potential and calcium transients by calculating average intensity (and standard deviation) from 3 biological batches with >100 cells for each timepoint and plotting it against the time (using R)."}, "hiPSC-CMs [3]": {"system": "hiPSC-CMs", "test": "Acute pathological hypertrophy model (endothelin-1 treatment), functional evaluation", "details": "for effect on FAO / effect on OxPhos / effect on glycolysis: 10 nM, 48 hrs", "description": "Human iPSC culture and cardiac differentiation. Human iPSCs (WTC-11) were cultured using chemically defined medium and published protocols (Burridge et al., 2014; Tohyama et al., 2013). Undifferentiated iPSCs were seeded (125,000 cells per cm^2) on Geltrex (ThermoScientific)-coated six-well plates and maintained in E8 medium (Life Technologies) for 4 days when they reached 80-85% confluence. Medium was then changed to cardiac differentiation medium (CDM), consisting of RPMI 1640 medium (11875, ThermoScientific), 500 μg/ml O. sativa—derived recombinant human albumin (A9731, Sigma-Aldrich), and 220 μg/ml L-ascorbic acid (A4544-Sigma-Aldrich), containing B27 supplement-insulin free (A1895601 ThermoScientific) to initiate differentiation. On d0-d2, medium was supplemented with 6 μM CHIR99021 (LC Laboratories) for induction of mesoderm. On d4-d5, medium was supplemented with 10 uM IWR (Selleck Chemicals) for cardiac differentiation. Contracting cells are typically noted, starting on d7-d8. To purify cardiac myocytes, a variant of RPMI 1640 medium without D-glucose (11879, Life Technologies) was supplemented with 4 mM sodium lactate (L4263, Sigma-Aldrich) for 2 days on day 10 of differentiation followed by culture in cardiac media, containing B-27™ Supplement with insulin (17504001, ThermoScientific) in CDM medium (Tohyama et al., 2013). Cells were dissociated on d13-d14 using TrypLE (ThermoScientific) and plated/cultured on either flat/anisotropic cell culture surfaces for 15-16 further days (d30 for flat and CMM) or 45 days (d60 for flat culture surface) in cardiac culture media. Cardiac culture media was used in all the conditions from day 13-d14 onwards, and it was composed of RPMI-1640, lipid-enhanced Cellastium S, 220 μg/ml L-ascorbic acid and B27 with insulin. Control flat tissue-culture surfaces were coated with fibronectin at a concentration of 4 μg/cm^2. For hypertrophy induction, day 30 differentiated cells were treated with 10 nM endothelin 1 (E7764 Millipore Sigma) for 48 hrs in cardiac culture media.\nMitochondrial respiration. Cellular energetics was monitored using the Seahorse Bioscience XF instrument in intact cells (non-permeabilized cells) and permeabilized cells(Afzal et al., 2017; Salabei et al., 2014). Intact cell respiration was monitored to evaluate the contribution of oxidative phosphorylation versus glycolysis, whereas permeabilized cell respiration was used to monitor electron transport chain (ETC) complex function/activity using ETC complex specific substrates and fatty acid oxidation.\nFor permeabilized cell respiration, iPSC-CMs were permeabilized using […] of Seahorse XF Plasma Membrane Permeabilizer (Part #102504-100). In permeabilized cells only OCR is measured. Mitochondria respiration were assayed using Buffer (pH 7.2) containing 137 mM KCl, 2 mM KH2PO4, 0.5 mM EGTA, 2.4 mM MgCl2, 20 mM HEPES with 0.2% fatty acid-free BSA (Sigma). Respiration rates were normalized to the protein concentration using BCA assay. Complex I respiration were evaluated by 5 mM glutamate and 5 mM malate (G/M) to evaluate State 4 respiration; 4 mM ADP was then injected to evaluate State 3 respiration. Maximal respiratory capacity (uncoupled mitochondria) was measured by injecting […]. Coupling of Electron Transport Chain respiration to ATP synthesis were evaluated using the ATP synthase inhibitor oligomycin (4 uM). Complex II respiration were measured using 5 mM succinate. Fatty acid oxidation was measured by injecting 200 uM of Palmitoyl-1-carnitine chloride/2.5 mM Malate and assessing the increase in OCR.\nFlorescence from cells (transduced with probes) was collected separately at a […] using an electron-multiplying charge-coupled device (EMCCD) camera using Andor Revolution X1 Spinning Disk confocal inverted microscope. Data was acquired with 2×2 pixel binning. ROS (roGFP2-Grx) probes were excited with 405 nm and 488 nm laser and emission was detected using bandpass filter of 500 nm-554 nm. […]"}}, "note": "“Also recorded” adds a separate entry of the source. Bridge positions count the residues as written; N and C are the ends. Ends that are not written are not given here."}
{"molecule": "CN(CCOc1ccc(NS(C)(=O)=O)cc1)CCc1ccc(NS(C)(=O)=O)cc1", "note": "[Dofetilide]", "values": [{"measurement": "tolerance of cells to 10 nM dose", "setting": "hiPSC-CMs [1]; 10 nM", "result": "fail to tolerate"}, {"measurement": "effect on action potential", "setting": "hiPSC-CMs [1]; Dofetilide IKr 3 nM", "result": "AP prolongation and early after depolarization (EAD); also recorded: appearance of EAD and APD prolongation"}]}
{"molecule": "CCN(CC)CC(=O)Nc1c(C)cccc1C", "note": "[Lidocaine]", "values": [{"measurement": "reduction of beat frequency", "setting": "hiPSC-CMs [1]; Lidocaine INa 100 um, 2 biological batches, n=30", "result": "~40", "unit": "%"}]}
{"molecule": "Cn1c(=O)c2c(ncn2C)n(C)c1=O", "note": "[caffeine]", "values": [{"measurement": "calcium amplitude following caffeine exposure (SR load)", "setting": "hiPSC-CMs [2]; cells matured on CMM", "result": "significant increase in amplitude"}, {"measurement": "calcium release from SR following caffeine exposure", "setting": "hiPSC-CMs [2]; d30 cells", "result": "failed to demonstrate the calcium release"}]}
{"molecule": "endothelin 1 (CSCSSLMDKECVYFCHLDIIW; disulfide 1-15, 3-11; ends not checked; UniProt P05305 53-73, looked up) [ET-1, pathological hypertrophy stimulus (E7764 Millipore Sigma)]", "values": [{"measurement": "effect on action potential duration", "setting": "hiPSC-CMs [3]; both d30 and CMM", "result": "increase"}, {"measurement": "effect on beating frequency", "setting": "hiPSC-CMs [3]; both d30 and CMM", "result": "decrease"}, {"measurement": "effect on Ca2+ peak amplitude", "setting": "hiPSC-CMs [3]; cells on CMM", "result": "no significant effect"}, {"measurement": "effect on oxidative stress handling (roGFP2 after H2O2)", "setting": "hiPSC-CMs [3]; cells on CMM", "result": "unperturbed"}, {"measurement": "effect on FAO", "setting": "hiPSC-CMs [3]; cells on CMM", "result": "reduction"}, {"measurement": "effect on OxPhos", "setting": "hiPSC-CMs [3]; cells on CMM", "result": "no effect"}, {"measurement": "effect on glycolysis", "setting": "hiPSC-CMs [3]; cells on CMM", "result": "slight increase"}, {"measurement": "effect on respiratory control ratio (state 3/state 4)", "setting": "hiPSC-CMs [3]; cells on CMM, acute treatment", "result": "not affected"}, {"measurement": "effect on Ca2+ peak amplitude", "setting": "hiPSC-CMs [3]; d30 cells", "result": "increase in peak amplitude"}, {"measurement": "effect on oxidative stress handling (roGFP2 after H2O2)", "setting": "hiPSC-CMs [3]; d30 cells", "result": "reduced oxidative stress handling"}, {"measurement": "effect on FAO", "setting": "hiPSC-CMs [3]; d30 cells", "result": "increase"}, {"measurement": "effect on OxPhos", "setting": "hiPSC-CMs [3]; d30 cells", "result": "significantly increased"}, {"measurement": "effect on glycolysis", "setting": "hiPSC-CMs [3]; d30 cells", "result": "significantly increased"}]}
